The record followed here is patent publication US20250221411A1, “SUBSTITUTED BENZAMIDES AS HERBICIDES” (SYNGENTA CROP PROTECTION AG, priority 2021, published 2025).

Each structure is given as a SMILES string.

What all share (assay type): in vivo
Settings in all cases: 250 g/h, evaluated after 13 days, five-point scale

Test [1] relates to Ipomoea hederacea (IPOHE). The test can be described thus: Post-emergence herbicidal glasshouse test, IPOHE. As to the method:
(§1) Seeds of a variety of test species are sown in standard soil in pots Amaranthus retoflexus (AMARE), Abutilon theophrasti (ABUTH), Setaria faberi (SETFA), Echinochloa crus-galli (ECHCG), Ipomoea hederacea (IPOHE)). After cultivation for one day (pre-emergence) or after 8 days cultivation (post-emergence) under controlled conditions in a glasshouse (at 24/16° C., day/night; 14 hours light; 65% humidity), the plants are sprayed with an aqueous spray solution derived from the formulation of the technical active ingredient in acetone/water (50:50) solution containing 0.5% Tween 20 (polyoxyethelyene sorbitan monolaurate, CAS RN 9005-64-5). Compounds are applied at 250 g/h unless otherwise indicated. The test plants are then grown in a glasshouse under controlled conditions in a glasshouse (at 24/16° C., day/night; 14 hours light; 65% humidity) and watered twice daily. After 13 days for pre and post-emergence, the test is evaluated for the percentage damage caused to the plant. The biological activities are shown in the following table on a five-point scale (5=80-100%; 4=60-79%; 3=40-59%; 2=20-39%; 1=0-19%).

Test [2] concerns Echinochloa crus-galli (ECHCG). Put plainly: Pre-emergence herbicidal glasshouse test, ECHCG. The procedure: as §1
For test [3], the system named is Abutilon theophrasti (ABUTH). The test can be described thus: Post-emergence herbicidal glasshouse test, ABUTH. As to the method:
as §1

In test [4] the test system is Echinochloa crus-galli (ECHCG). Put plainly: Post-emergence herbicidal glasshouse test, ECHCG. The procedure: as §1
Test [5] deals with Amaranthus retoflexus (AMARE). The test can be described thus: Pre-emergence herbicidal glasshouse test, AMARE. As to the method:
as §1

Test [6] relates to Ipomoea hederacea (IPOHE). Put plainly: Pre-emergence herbicidal glasshouse test, IPOHE. As to the method: as §1
Test [7] relates to Setaria faberi (SETFA). The test can be described thus: Pre-emergence herbicidal glasshouse test, SETFA. The procedure:
as §1

For test [8], the system named is Abutilon theophrasti (ABUTH). Put plainly: Pre-emergence herbicidal glasshouse test, ABUTH. The procedure: as §1
For test [9], the system named is Setaria faberi (SETFA). The test can be described thus: Post-emergence herbicidal glasshouse test, SETFA. The procedure:
as §1

Test [10] concerns Amaranthus retoflexus (AMARE). Put plainly: Post-emergence herbicidal glasshouse test, AMARE. The procedure: as §1

Take `Cn1nnnc1NC(=O)c1ccc(OC(F)(F)F)c(CNC(=O)c2c(F)cccc2F)c1Cl` [Compound 1.008]: in test [1], the “percentage damage caused to the plant, POST Application IPOHE” value is recorded as 5 (5=80-100%). The “percentage damage caused to the plant, PRE Application ECHCG” value in test [2] is given as 2 (2=20-39%). In addition, in test [3], the “percentage damage caused to the plant, POST Application ABUTH” value is on record as 5 (5=80-100%). Further, in test [4], the “percentage damage caused to the plant, POST Application ECHCG” value was 5 (5=80-100%). The “percentage damage caused to the plant, PRE Application AMARE” value in [5] is on record as 5 (5=80-100%). Further, the “percentage damage caused to the plant, PRE Application IPOHE” value in test [6] is 1 (1=0-19%). Further, the “percentage damage caused to the plant, PRE Application SETFA” value in the test on Setaria faberi (SETFA) [7] is 2 (2=20-39%). Moreover, the “percentage damage caused to the plant, PRE Application ABUTH” value in test [8] was 5 (5=80-100%). In addition, the “percentage damage caused to the plant, POST Application SETFA” value in the test on Setaria faberi (SETFA) [9] is 4 (4=60-79%).
Consider `CC(=O)NCc1c(OC(F)(F)F)ccc(C(=O)Nc2nnnn2C)c1Cl` [Compound 1.009], for which the “percentage damage caused to the plant, POST Application IPOHE” value in test [1] is given as 5 (5=80-100%). Further, the “percentage damage caused to the plant, POST Application AMARE” value in test [10] is reported as 5 (5=80-100%). In test [2], the “percentage damage caused to the plant, PRE Application ECHCG” value is listed as 5 (5=80-100%). The “percentage damage caused to the plant, POST Application ABUTH” value in test [3] was 5 (5=80-100%). Also, the “percentage damage caused to the plant, POST Application ECHCG” value in test [4] is recorded as 5 (5=80-100%). Besides, in test [5], the “percentage damage caused to the plant, PRE Application AMARE” value was 5 (5=80-100%). Also, the “percentage damage caused to the plant, PRE Application IPOHE” value in test [6] was 4 (4=60-79%). For the same compound, the “percentage damage caused to the plant, PRE Application SETFA” value in the test with Setaria faberi (SETFA) [7] was 5 (5=80-100%). For the same compound, in [8], the “percentage damage caused to the plant, PRE Application ABUTH” value was 5 (5=80-100%). Besides, the “percentage damage caused to the plant, POST Application SETFA” value in the test with Setaria faberi (SETFA) [9] is listed as 5 (5=80-100%).
For the compound `CCCC(=O)NCc1c(OC(F)(F)F)ccc(C(=O)Nc2nnnn2CC)c1Cl` [Compound 1.005], the “percentage damage caused to the plant, POST Application IPOHE” value in test [1] was 5 (5=80-100%). The “percentage damage caused to the plant, POST Application AMARE” value in test [10] is reported as 5 (5=80-100%). Besides, the “percentage damage caused to the plant, PRE Application ECHCG” value in test [2] was 1 (1=0-19%). For the same compound, in test [3], the “percentage damage caused to the plant, POST Application ABUTH” value is 5 (5=80-100%). Besides, in [5], the “percentage damage caused to the plant, PRE Application AMARE” value is reported as 5 (5=80-100%). Besides, in [6], the “percentage damage caused to the plant, PRE Application IPOHE” value is 1 (1=0-19%). For the same compound, in the test with Setaria faberi (SETFA) [7], the “percentage damage caused to the plant, PRE Application SETFA” value is recorded as 1 (1=0-19%). The “percentage damage caused to the plant, PRE Application ABUTH” value in test [8] is on record as 5 (5=80-100%). In addition, in the test on Setaria faberi (SETFA) [9], the “percentage damage caused to the plant, POST Application SETFA” value is recorded as 5 (5=80-100%).
For the compound `Cn1nnnc1NC(=O)c1ccc(OC(F)(F)F)c(CNC(=O)c2ccc(Cl)cc2)c1Cl` [Compound 1.011], in test [1], the “percentage damage caused to the plant, POST Application IPOHE” value is 5 (5=80-100%). Besides, in [10], the “percentage damage caused to the plant, POST Application AMARE” value is reported as 5 (5=80-100%). Besides, the “percentage damage caused to the plant, PRE Application ECHCG” value in test [2] is 1 (1=0-19%). For the same compound, in test [3], the “percentage damage caused to the plant, POST Application ABUTH” value is 5 (5=80-100%). The “percentage damage caused to the plant, POST Application ECHCG” value in [4] was 5 (5=80-100%). The “percentage damage caused to the plant, PRE Application AMARE” value in test [5] is 5 (5=80-100%). For the same compound, the “percentage damage caused to the plant, PRE Application IPOHE” value in [6] was 1 (1=0-19%). The “percentage damage caused to the plant, PRE Application SETFA” value in the test with Setaria faberi (SETFA) [7] is 1 (1=0-19%). Moreover, the “percentage damage caused to the plant, PRE Application ABUTH” value in [8] was 5 (5=80-100%). Besides, the “percentage damage caused to the plant, POST Application SETFA” value with Setaria faberi (SETFA) [9] is recorded as 2 (2=20-39%).
In the case of `Cn1nnnc1NC(=O)c1ccc(OC(F)(F)F)c(CNC(=O)c2ccc(F)cc2F)c1Cl` [Compound 1.010], in test [1], the “percentage damage caused to the plant, POST Application IPOHE” value is recorded as 5 (5=80-100%). Besides, the “percentage damage caused to the plant, POST Application AMARE” value in test [10] was 5 (5=80-100%). Moreover, the “percentage damage caused to the plant, PRE Application ECHCG” value in test [2] is recorded as 1 (1=0-19%). For the same compound, the “percentage damage caused to the plant, POST Application ABUTH” value in test [3] is on record as 5 (5=80-100%). The “percentage damage caused to the plant, POST Application ECHCG” value in test [4] is 5 (5=80-100%). Besides, the “percentage damage caused to the plant, PRE Application AMARE” value in test [5] is 5 (5=80-100%). Besides, the “percentage damage caused to the plant, PRE Application IPOHE” value in [6] is listed as 1 (1=0-19%). Further, the “percentage damage caused to the plant, PRE Application SETFA” value with Setaria faberi (SETFA) [7] is reported as 1 (1=0-19%). Besides, in test [8], the “percentage damage caused to the plant, PRE Application ABUTH” value is 5 (5=80-100%). In addition, the “percentage damage caused to the plant, POST Application SETFA” value in the test on Setaria faberi (SETFA) [9] is 5 (5=80-100%).
Turning to `CCC(=O)N(C)Cc1c(OC(F)(F)F)ccc(C(=O)Nc2nnnn2C)c1Cl` [Compound 1.001], the “percentage damage caused to the plant, POST Application IPOHE” value in test [1] is reported as 5 (5=80-100%). For the same compound, the “percentage damage caused to the plant, POST Application AMARE” value in test [10] is 5 (5=80-100%). In addition, in test [2], the “percentage damage caused to the plant, PRE Application ECHCG” value is given as 4 (4=60-79%). Moreover, in [3], the “percentage damage caused to the plant, POST Application ABUTH” value is recorded as 5 (5=80-100%). Besides, the “percentage damage caused to the plant, POST Application ECHCG” value in test [4] is listed as 5 (5=80-100%). Moreover, in [5], the “percentage damage caused to the plant, PRE Application AMARE” value is 5 (5=80-100%). In addition, the “percentage damage caused to the plant, PRE Application IPOHE” value in test [6] is 1 (1=0-19%). In the test on Setaria faberi (SETFA) [7], the “percentage damage caused to the plant, PRE Application SETFA” value was 3 (3=40-59%). Also, the “percentage damage caused to the plant, PRE Application ABUTH” value in [8] was 5 (5=80-100%). Moreover, in the test on Setaria faberi (SETFA) [9], the “percentage damage caused to the plant, POST Application SETFA” value was 5 (5=80-100%).
On to `CCC(=O)NCc1c(OC(F)(F)F)ccc(C(=O)Nc2nnnn2C)c1Cl` [Compound 1.003, 2-chloro-N-(1-methyltetrazol-5-yl)-3-[(propanoylamino)methyl]-4-(trifluoromethoxy)benzamide], for which the “percentage damage caused to the plant, POST Application IPOHE” value in [1] is recorded as 5 (5=80-100%). Moreover, the “percentage damage caused to the plant, POST Application AMARE” value in test [10] was 5 (5=80-100%). Moreover, the “percentage damage caused to the plant, PRE Application ECHCG” value in test [2] is 1 (1=0-19%). In test [4], the “percentage damage caused to the plant, POST Application ECHCG” value is given as 5 (5=80-100%). For the same compound, the “percentage damage caused to the plant, PRE Application AMARE” value in [5] was 5 (5=80-100%). Also, the “percentage damage caused to the plant, PRE Application IPOHE” value in [6] is listed as 3 (3=40-59%). Further, the “percentage damage caused to the plant, PRE Application SETFA” value in the test on Setaria faberi (SETFA) [7] is on record as 4 (4=60-79%). In addition, in test [8], the “percentage damage caused to the plant, PRE Application ABUTH” value is 5 (5=80-100%). The “percentage damage caused to the plant, POST Application SETFA” value in the test on Setaria faberi (SETFA) [9] is given as 5 (5=80-100%).
Consider `CN(Cc1c(OC(F)(F)F)ccc(C(=O)Nc2nnnn2C)c1Cl)C(=O)C1CC1` [Compound 1.002], for which, in test [1], the “percentage damage caused to the plant, POST Application IPOHE” value is listed as 5 (5=80-100%). Moreover, the “percentage damage caused to the plant, POST Application AMARE” value in [10] is on record as 5 (5=80-100%). The “percentage damage caused to the plant, PRE Application ECHCG” value in test [2] is on record as 2 (2=20-39%). In addition, in test [3], the “percentage damage caused to the plant, POST Application ABUTH” value is 5 (5=80-100%). For the same compound, in test [4], the “percentage damage caused to the plant, POST Application ECHCG” value was 5 (5=80-100%). The “percentage damage caused to the plant, PRE Application AMARE” value in [5] is 1 (1=0-19%). In addition, the “percentage damage caused to the plant, PRE Application IPOHE” value in [6] is on record as 1 (1=0-19%). Besides, in the test on Setaria faberi (SETFA) [7], the “percentage damage caused to the plant, PRE Application SETFA” value was 2 (2=20-39%). The “percentage damage caused to the plant, PRE Application ABUTH” value in test [8] is on record as 3 (3=40-59%). Further, the “percentage damage caused to the plant, POST Application SETFA” value with Setaria faberi (SETFA) [9] was 5 (5=80-100%).
